Where “and” joins values, the source holds several entries; their conditions need not be identical. Equal values may be shown once.
Legend:
Assay type in all cases: cell-based
MRC-9 cells = experiment: Multiplex high-content viability assessment; settings: human fibroblast, 10 µM
Experimental: (§1) To assess the influence on cell health, a high-content screening in living cells called the multiplex high-content assay, as described previously by Tjaden et al., was performed.[38] In brief, HEK293T (ATCC CRL-1573) and U2OS (ATCCHTB-96) were cultured in DMEM plus L-glutamine (high glucose) supplemented by 10% FBS (Gibco) and penicillin/streptomycin (Gibco). MRC-9 fibroblasts ([…]) were cultured in EMEM plus L-glutamine supplemented by 10% FBS (Gibco) and penicillin/streptomycin (Gibco). Cells were seeded at a density of 1250 cells per well in a 384-well plate in a culture medium (cell culture microplate, PS, f-bottom, μClear, 781091, Greiner), with a volume of 50 μL per well. All outer wells were filled with 100 μL of PBS buffer (Gibco). […] The cell shape and fluorescence were measured before treatment and 12, 24, and 48 h after compound treatment using the CQ1 high-content confocal microscope (Yokogawa, Musashino, Japan). […] The compounds were tested at 1 and 10 μM, respectively. Acquired images of the cells were processed using Yokogawa CellPathfinder software (v3.04.02.02). […] Results were normalized to cells exposed to 0.1% DMSO. All compounds were tested in biological duplicates, and SEM (standard error of mean) was calculated of biological duplicates.

U2OS cells = settings: U2OS; 10 µM; 0 h after treatment
Experimental: as §1

HEK293T cells = settings: HEK293T, 10 µM
Experimental: as §1

CN[C@@H]1C[C@H]2O[C@@](C)([C@@H]1OC)n1c3ccccc3c3c4c(c5c6ccccc6n2c5c31)C(=O)NC4 [staurosporine]
Population Healthy Nuclei (%) (MRC-9 cells; 0 h after treatment): 63.64% and 62.50% and 53.61% and 54.10% | Population Fragmented Nuclei (%) (MRC-9 cells; 12 h after treatment): 57.03% and 59.76% and 57.04% and 49.59% | Population Healthy Nuclei (%) (MRC-9 cells; 12 h after treatment): 32.43% and 29.76% and 33.41% and 38.90% | Population apoptotic cell (%) (MRC-9 cells; 12 h after treatment): 48.72% and 46.51% and 42.50% and 50.00% | Population Fragmented Nuclei (%) (MRC-9 cells; 24 h after treatment): 56.12% and 54.77% and 50.00% and 53.32% | Population Healthy Nuclei (%) (MRC-9 cells; 24 h after treatment): 37.01% and 35.97% and 41.62% and 36.60% | Population Fragmented Nuclei (%) (MRC-9 cells; 48 h after treatment): 53.07% and 56.00% and 48.62% and 54.18% | Population Healthy Nuclei (%) (MRC-9 cells; 48 h after treatment): 39.48% and 36.86% and 44.48% and 39.35% | Population with increased mitochondrial mass (%) (U2OS cells): 2.11% and 3.70% and 5.56% | Population with membrane disruption (%) (HEK293T cells; 0 h after treatment): 0.00% | Population Healthy Nuclei (%) (HEK293T cells; 12 h after treatment): 64.72% and 69.22% and 71.09% | Population cell that influence microtubule strucutre (%) (HEK293T cells; 12 h after treatment): 37.22% and 35.67% | Population apoptotic cell (%) (HEK293T cells; 48 h after treatment): 60.00% and 75.00% and 76.47%

— publication PMC12090182, “Repurposing of the RIPK1-Selective Benzo[1,4]oxazepin-4-one Scaffold for the Development of a Type III LIMK1/2 Inhibitor” (ACS Chemical Biology, 2025)
